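Grown in 96-well plates, cells were treated for 48 hours with each compound at five concentrations. Insufficient inhibition: endpoint recorded as highest concentration tested. TGI denotes the concentration required for complete inhibition of growth.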
Legend:
Assay in all cases: growth of human tumour cells (NCI), 48 h
786-0 renal = test system: 786-0 renal
A498 renal = test system: A498 renal
A549 NSCLC = test system: A549 NSCLC
BT-549 breast = test system: BT-549 breast
CAKI-1 renal = test system: CAKI-1 renal
CCRF-CEM leukemia = test system: CCRF-CEM leukemia
COLO 205 colon = test system: COLO 205 colon
DU-145 prostate = test system: DU-145 prostate
HCC-2998 colon = test system: HCC-2998 colon
HCT-116 colon = test system: HCT-116 colon
HCT-15 colon = test system: HCT-15 colon
HL-60(TB) leukemia = test system: HL-60(TB) leukemia
HOP-62 NSCLC = test system: HOP-62 NSCLC
HOP-92 NSCLC = test system: HOP-92 NSCLC
HS 578T breast = test system: HS 578T breast
IGROV1 ovarian = test system: IGROV1 ovarian
KM12 colon = test system: KM12 colon
LOX IMVI melanoma = test system: LOX IMVI melanoma
M14 melanoma = test system: M14 melanoma
MALME-3M melanoma = test system: MALME-3M melanoma
MCF7 breast = test system: MCF7 breast
MDA-MB-231 breast = test system: MDA-MB-231 breast
MDA-MB-435 = test system: MDA-MB-435
MDA-N = test system: MDA-N
MOLT-4 leukemia = test system: MOLT-4 leukemia
NCI-H226 lung = test system: NCI-H226 lung
NCI-H23 lung = test system: NCI-H23 lung
NCI-H460 lung = test system: NCI-H460 lung
NCI/ADR-RES ovarian = test system: NCI/ADR-RES ovarian
OVCAR-3 ovarian = test system: OVCAR-3 ovarian
OVCAR-4 ovarian = test system: OVCAR-4 ovarian
OVCAR-5 ovarian = test system: OVCAR-5 ovarian
OVCAR-8 ovarian = test system: OVCAR-8 ovarian
PC-3 prostate = test system: PC-3 prostate
RPMI-8226 leukemia = test system: RPMI-8226 leukemia
RXF 393 renal = test system: RXF 393 renal
SF-295 CNS = test system: SF-295 CNS
SF-539 CNS = test system: SF-539 CNS
SK-MEL-2 melanoma = test system: SK-MEL-2 melanoma
SK-MEL-28 melanoma = test system: SK-MEL-28 melanoma
SK-MEL-5 melanoma = test system: SK-MEL-5 melanoma
SK-OV-3 ovarian = test system: SK-OV-3 ovarian
SN12C renal = test system: SN12C renal
SNB-19 CNS = test system: SNB-19 CNS
SNB-75 CNS = test system: SNB-75 CNS
SR leukemia = test system: SR leukemia
SW-620 colon = test system: SW-620 colon
T-47D breast = test system: T-47D breast
TK-10 renal = test system: TK-10 renal
U251 CNS = test system: U251 CNS
UACC-257 melanoma = test system: UACC-257 melanoma
UACC-62 melanoma = test system: UACC-62 melanoma
UO-31 renal = test system: UO-31 renal
ACHN renal = test system: ACHN renal
HT29 colon = test system: HT29 colon
K-562 leukemia = test system: K-562 leukemia
NCI-H522 lung = test system: NCI-H522 lung
SF-268 CNS = test system: SF-268 CNS

Measured: TGI

Cc1[nH]c(=O)nc(NNCc2ccc(Cl)cc2)c1C(=O)Nc1ccc(Cl)cc1
not listed: ACHN renal | HT29 colon | K-562 leukemia | NCI-H522 lung | SF-268 CNS
> 100 µM: all other assays above

COc1ccc(-c2c(C#N)c(S)n(NS(=O)(=O)c3ccccc3)c(=O)c2C#N)cc1
98.4 µM: RPMI-8226 leukemia
61.6 µM: SF-539 CNS
46 µM: BT-549 breast
73 µM: NCI-H522 lung
80.3 µM: SR leukemia
not listed: A498 renal | HOP-92 NSCLC
> 100 µM: all other assays above

Source: PubChem BioAssay (NCI)
